The term IC50 denotes the point on the concentration scale where inhibition reaches its midpoint. Broadly, the Ki is a dissociation constant, usually derived from enzyme kinetics or from competition with a known ligand. Low readings indicate higher affinity, high ones lower affinity.

We go through 44 compounds from ChEMBL document CHEMBL6109109, “Fatty acid binding protein 5 inhibitors as novel anticancer agents against metastatic castration-resistant prostate cancer” (Bioorg Med Chem, 2025).

One data set has as its system PC-3. The data set can be described thus: Cytotoxicity against human PC-3 cells assessed as reduction in cell viability measured after 72 hrs by MTT assay. To be noted: PC-3, 72 h. Type of data set: functional, cell-based. (Tetrazolium dyes change colour on reduction, which living cells bring about.)
Data set [1] in a line: Cytotoxicity against mouse RCap cells assessed as reduction in cell viability measured after 72 hrs by MTT assay. In kind it is functional, cell-based.
Data set [2] can be described thus: Cytotoxicity against human WI-38 cells assessed as reduction in cell viability measured after 72 hrs by MTT assay. In kind it is toxicity, cell-based.
The nature of data set [3]: Binding affinity to FABP5 (unknown origin). Also noted: species or system Homo sapiens.

For the compound `Cn1cc(-c2ccc(-c3ccc4c(c3)OCO4)cc2OC(=O)[C@H]2[C@@H](c3ccccc3)[C@@H](C(=O)O)[C@@H]2c2ccccc2)cn1`, the values for the IC50 (in the data set on PC-3; in data set [1]) were 10.3 µM and 6.16 µM, respectively. The IC50 at 72 h in data set [2] is 26.4 µM. The compound also yielded a Ki in data set [3] of 760 nM.
The like results for `O=C(O)[C@@H]1[C@@H](c2ccccc2)[C@H](C(=O)OCc2cccc3ccccc23)[C@H]1c1ccccc1` were, in that order, 13.1 µM, 23.9 µM, 27.1 µM and 5080 nM.
As for `O=C(O)[C@H]1[C@H](c2ccccc2)[C@@H](C(=O)Oc2cc(-c3ccc4c(c3)OCCO4)cc3c2OCCO3)[C@H]1c1ccccc1`, in the data set on PC-3, the IC50 is 20.7 µM. The compound also yielded an inhibition constant (Ki) in data set [3] of 3500 nM.
The like results for `C#Cc1ccc(-c2ccc3c(c2)OCO3)cc1OC(=O)[C@H]1[C@@H](c2ccccc2OC)[C@@H](C(=O)O)[C@@H]1c1ccccc1OC` were, in that order, 21.8 µM and 1680 nM.
Take `N#CCc1ccc(-c2ccccc2)cc1OC(=O)[C@H]1[C@@H](c2ccccc2)[C@@H](C(=O)O)[C@@H]1c1ccccc1`: the IC50 was 12.3 µM in the data set with PC-3 and 30.1 µM in data set [1]. Moreover, the concentration for half-maximal inhibition (IC50) at 72 h in data set [2] amounted to 55.2 µM. Moreover, the Ki in data set [3] was found to be 2370 nM.
Take `COc1ccccc1[C@H]1[C@H](C(=O)O)[C@H](c2ccccc2OC)[C@@H]1C(=O)Oc1ccc(OC)c2ccccc12`: the IC50 in the data set with PC-3 was determined as 19.6 µM. Besides, the inhibitory constant (Ki) in data set [3] turned out to be 26600 nM.
Consider `O=C(O)[C@H]1[C@H](c2ccccc2)[C@@H](C(=O)Oc2cc(-c3ccc4c(c3)OCO4)ccc2-c2ccccc2)[C@H]1c1ccccc1`, for which the IC50 with PC-3 is 9.76 µM; in data set [1], 5.53 µM. Besides, in data set [2], the IC50 at 72 h turned out to be 22.4 µM. Besides, affinity in data set [3] was put at a Ki of 1170 nM.
The like results for `COc1ccccc1[C@H]1[C@H](C(=O)O)[C@H](c2ccccc2OC)[C@H]1C(=O)Oc1cc(-c2ccc3c(c2)OCO3)ccc1CC#N` were, in that order, 12.5 µM, 20.7 µM, 29.8 µM and 580 nM.
Turning to `N#Cc1ccc(-c2ccc3c(c2)OCCO3)cc1OC(=O)[C@H]1[C@@H](c2ccccc2)[C@H](C(=O)O)[C@@H]1c1ccccc1`, the IC50 with PC-3 stood at 15.1 µM. In data set [3], this compound had a Ki of 640 nM.
In the case of `O=C(O)[C@@H]1[C@@H](c2ccccc2)[C@H](C(=O)Oc2cccc3ccccc23)[C@H]1c1ccccc1`, the IC50 with PC-3 was 23.8 µM.
On to `O=C(O)[C@H]1[C@H](c2ccccc2)[C@H](C(=O)Oc2cc(-c3ccc4c(c3)OCO4)ccc2-c2cncnc2)[C@H]1c1ccccc1`, for which the 50% inhibitory concentration (IC50) in the data set on PC-3 was determined as 12.5 µM; in data set [1] it was 30.2 µM. Besides, the IC50 at 72 h in data set [2] amounted to 95.5 µM.
`O=C(O)[C@H]1[C@H](c2ccccc2)[C@H](C(=O)Oc2cccc(-c3ccc4c(c3)OCCO4)c2)[C@H]1c1ccccc1`: the IC50 came to 13.1 µM with PC-3 and 14.5 µM in data set [1]. Also, in data set [2], the IC50 at 72 h worked out at 66.5 µM. In addition, the Ki in data set [3] is 660 nM.
Take `O=C1Cc2ccc(-c3ccccc3OC(=O)[C@H]3[C@@H](c4ccccc4)[C@H](C(=O)O)[C@@H]3c3ccccc3)cc2N1`: the IC50 with PC-3 amounted to 63.9 µM. Besides, in data set [3], the inhibition constant Ki came to 290 nM.
Take `O=C(O)[C@H]1[C@H](c2ccccc2)[C@H](C(=O)Oc2ccc3cc(-c4cncnc4)ccc3c2)[C@H]1c1ccccc1`: the half-inhibitory concentration (IC50) with PC-3 turned out to be 12.1 µM; in data set [1], 18.7 µM. In addition, in data set [2], the half-maximal inhibitory concentration (IC50) at 72 h was 91.9 µM.
For `COc1ccccc1[C@H]1[C@H](C(=O)O)[C@H](c2ccccc2OC)[C@@H]1C(=O)Oc1cccc2ccccc12`, in the data set on PC-3, the IC50 was determined as 25.5 µM.
With `N#CCc1ccc(-c2ccccc2)cc1OC(=O)[C@H]1[C@@H](c2ccccc2)[C@H](C(=O)O)[C@@H]1c1ccccc1`, the IC50 with PC-3 stood at 9.47 µM; in data set [1], 22.4 µM. In addition, the half-maximal inhibitory concentration (IC50) at 72 h in data set [2] was 47.3 µM. Moreover, the Ki in data set [3] was 640 nM.
In the case of `COc1ccccc1[C@H]1[C@H](C(=O)O)[C@H](c2ccccc2OC)[C@H]1C(=O)Oc1ccccc1-c1ccc2c(c1)OCO2`, the IC50 in the data set on PC-3 came to 19.9 µM. Further, in data set [3], the inhibitory constant (Ki) worked out at 1590 nM.
For `O=C1Cc2cc(-c3cccc(OC(=O)[C@H]4[C@@H](c5ccccc5)[C@@H](C(=O)O)[C@@H]4c4ccccc4)c3)ccc2N1`, in that order: 20 µM and 2210 nM.
For `N#Cc1ccc(-c2ccccc2OC(=O)[C@H]2[C@@H](c3ccccc3)[C@@H](C(=O)O)[C@@H]2c2ccccc2)cc1`, in that order: 20.5 µM and 1390 nM.
On to `COc1ccccc1[C@H]1[C@H](C(=O)O)[C@H](c2ccccc2OC)[C@H]1C(=O)Oc1cc(-c2ccccc2)ccc1CC#N`, for which the IC50 came out at 7.31 µM in the data set with PC-3 and 8.31 µM in data set [1]. Further, the half-inhibitory concentration (IC50) at 72 h in data set [2] came to 24.4 µM. The compound further displayed an inhibition constant Ki in data set [3] of 810 nM.
Take `O=C(O)[C@@H]1[C@@H](c2ccccc2)[C@H](C(=O)OCc2ccccc2-c2ccccc2)[C@H]1c1ccccc1`: the half-inhibitory concentration (IC50) in the data set on PC-3 is 22.1 µM. Further, the Ki in data set [3] was 1650 nM.
Take `O=C(O)[C@H]1[C@H](c2ccccc2)[C@@H](C(=O)Oc2cc(-c3ccc4c(c3)OCO4)ccc2Br)[C@H]1c1ccccc1`: the half-inhibitory concentration (IC50) with PC-3 turned out to be 7.72 µM; in data set [1], 9.98 µM. Also, the half-inhibitory concentration (IC50) at 72 h in data set [2] came to 25.9 µM. In addition, in data set [3], the inhibition constant Ki was determined as 890 nM.
For the compound `COc1ccccc1[C@H]1[C@H](C(=O)O)[C@H](c2ccccc2OC)[C@H]1C(=O)Oc1ccccc1-c1ccc2c(c1)OCCO2`, the half-maximal inhibitory concentration (IC50) in the data set with PC-3 was 17.8 µM. The same compound displayed a Ki in data set [3] of 2810 nM.
`COc1ccccc1[C@H]1[C@H](C(=O)O)[C@H](c2ccccc2OC)[C@H]1C(=O)Oc1cc(-c2ccc(C#N)cc2)ccc1CC#N`: the half-inhibitory concentration (IC50) in the data set with PC-3 was 6.39 µM; in data set [1] it was 12.4 µM. Besides, the 50% inhibitory concentration (IC50) at 72 h in data set [2] amounted to 25.4 µM. This compound displayed a Ki in data set [3] of 770 nM.
For `N#CCc1ccc(-c2ccc3c(c2)OCO3)cc1OC(=O)[C@H]1[C@@H](c2ccccc2)[C@@H](C(=O)O)[C@@H]1c1ccccc1`, the IC50 in the data set with PC-3 is 12.8 µM. Besides, the half-maximal inhibitory concentration (IC50) at 72 h in data set [2] was 66.3 µM. The compound also came in with an inhibitory constant (Ki) in data set [3] of 1420 nM.
With `COc1ccccc1[C@H]1[C@H](C(=O)O)[C@H](c2ccccc2OC)[C@@H]1C(=O)Oc1cccc(-c2ccc(F)cc2)c1`, the IC50 worked out at 14.6 µM with PC-3 and 19 µM in data set [1]. Moreover, the half-inhibitory concentration (IC50) at 72 h in data set [2] turned out to be 57.5 µM. Also, the Ki in data set [3] stood at 1770 nM.
The like results for `C#Cc1ccc(-c2ccc3c(c2)OCO3)cc1OC(=O)[C@H]1[C@@H](c2ccccc2OC)[C@H](C(=O)O)[C@@H]1c1ccccc1OC` were, in that order, 11.4 µM, 14.8 µM, 72.1 µM and 1210 nM.
For `COc1ccccc1[C@H]1[C@H](C(=O)O)[C@H](c2ccccc2OC)[C@H]1C(=O)OCCc1ccccc1-c1ccccc1`, in that order: 11.9 µM, 14.2 µM, 51 µM and 510 nM.
The like results for `COc1ccccc1[C@H]1[C@H](C(=O)O)[C@H](c2ccccc2OC)[C@H]1C(=O)OCC1(F)c2ccccc2-c2ccccc21` were, in that order, 11.8 µM, 13 µM, 55.6 µM and 1830 nM.
Take `COc1ccccc1[C@H]1[C@H](C(=O)O)[C@H](c2ccccc2OC)[C@H]1C(=O)Oc1cccc(-c2ccc(F)cc2)c1`: the concentration for half-maximal inhibition (IC50) with PC-3 worked out at 10.8 µM; in data set [1], 12.3 µM. The concentration for half-maximal inhibition (IC50) at 72 h in data set [2] is 29.2 µM. The inhibition constant Ki in data set [3] is 1030 nM.
The like results for `COc1ccccc1[C@H]1[C@H](C(=O)O)[C@H](c2ccccc2OC)[C@H]1C(=O)Oc1cc(-c2ccc3c(c2)OCO3)ccc1-c1cnn(C)c1` were, in that order, 5.71 µM, 7.94 µM, 29.8 µM and 540 nM.
Take `COc1ccccc1[C@H]1[C@H](C(=O)O)[C@H](c2ccccc2OC)[C@H]1C(=O)Oc1ccccc1-c1ccccc1`: in the data set on PC-3, the half-inhibitory concentration (IC50) worked out at 19.8 µM. In data set [3], this compound displayed an inhibition constant (Ki) of 1590 nM.
For `O=C(O)[C@H]1[C@H](c2ccccc2)[C@H](C(=O)OCc2cccc3ccccc23)[C@H]1c1ccccc1`, in that order: 19.1 µM and 2640 nM.
`O=C(O)[C@H]1[C@H](c2ccccc2)[C@@H](C(=O)Oc2cc(-c3ccc4c(c3)OCO4)ccc2-c2cncnc2)[C@H]1c1ccccc1`: the IC50 came to 5.88 µM in the data set with PC-3 and 2.92 µM in data set [1]. Besides, in data set [2], the concentration for half-maximal inhibition (IC50) at 72 h stood at 31.5 µM.
Regarding `CC(=O)N1CC=C(c2cccc(OC(=O)[C@H]3[C@@H](c4ccccc4)[C@@H](C(=O)O)[C@@H]3c3ccccc3)c2)CC1`, the IC50 with PC-3 came to 67.4 µM. Further, the affinity in data set [3], expressed as Ki, was 28900 nM.
On to `O=C(O)[C@H]1[C@H](c2ccccc2)[C@H](C(=O)OC2Cc3ccccc3C2)[C@H]1c1ccccc1`, for which, in the data set on PC-3, the IC50 is 37.6 µM.
As for `O=C(O)[C@H]1[C@H](c2ccccc2)[C@H](C(=O)Oc2cccc(-c3ccc(O)c(O)c3)c2)[C@H]1c1ccccc1`, the IC50 in the data set on PC-3 stood at 52.9 µM. In data set [3], this compound gave a Ki of 1250 nM.
As for `O=C(O)[C@H]1[C@H](c2ccccc2)[C@H](C(=O)Oc2ccccc2-c2ccccc2)[C@H]1c1ccccc1`, the IC50 with PC-3 stood at 16.2 µM.
Regarding `O=C(O)[C@H]1[C@H](c2ccccc2)[C@H](C(=O)Oc2cccc(C3=CCOCC3)c2)[C@H]1c1ccccc1`, the IC50 in the data set with PC-3 was found to be 52 µM. In data set [3], the affinity, expressed as Ki, was 1750 nM.
The like results for `COc1ccccc1[C@H]1[C@H](C(=O)O)[C@H](c2ccccc2OC)[C@H]1C(=O)Oc1cc(-c2ccc(C#N)cc2)ccc1-c1cncnc1` were, in that order, 14.9 µM and 380 nM.
With `N#CCc1ccc(-c2ccc3c(c2)OCO3)cc1OC(=O)[C@H]1[C@@H](c2ccccc2)[C@H](C(=O)O)[C@@H]1c1ccccc1`, the 50% inhibitory concentration (IC50) in the data set with PC-3 turned out to be 13 µM. Also, in data set [2], the IC50 at 72 h turned out to be 46.3 µM. This compound also yielded a Ki in data set [3] of 640 nM.
Regarding `COc1ccccc1[C@H]1[C@H](C(=O)O)[C@H](c2ccccc2OC)[C@H]1C(=O)Oc1cccc(-c2ccc(O)c(O)c2)c1`, the concentration for half-maximal inhibition (IC50) with PC-3 was 40.1 µM. Also, the Ki in data set [3] was 1250 nM.
For `COc1ccccc1[C@H]1[C@H](C(=O)O)[C@H](c2ccccc2OC)[C@H]1C(=O)OC1Cc2ccccc2C1`, the IC50 with PC-3 stood at 16.5 µM.
Turning to `COc1ccccc1[C@H]1[C@H](C(=O)O)[C@H](c2ccccc2OC)[C@H]1C(=O)Oc1cccc(-c2ccc3c(c2)NC(=O)C3)c1`, the half-inhibitory concentration (IC50) with PC-3 worked out at 16.2 µM. Moreover, the Ki in data set [3] came to 1060 nM.
